Source: patent US20040102454A1, “Phenylahistin and the phenylahistin analogs, a new class of anti-tumor compounds” (priority 1998, published 2004)
Where “and” joins values, the source holds several entries; their conditions need not be identical. Equal entries are not always repeated.

Tests used:
[1] = test system: B16-F10 Melanoma (murine melanoma); test: Tumor Panel Screen, Resazurin cytotoxicity assay; format: cell-based
Excerpt: (§1) The following cell lines (source in parentheses) were used: HT29 (human colon tumor; ATCC; HTB-38), PC3 (human prostate tumor; ATCC; CRL-1435), MDA-MB-231 (human breast tumor; ATCC; HTB-26), NCI-H292 (human non-small cell lung tumor; ATCC; CRL-1848), OVCAR-3 (human ovarian tumor; ATCC; HTB-161), B16-F10 (murine melanoma; ATCC; CRL-6475) and CCD-27 sk (normal human fibroblast; ATCC; CRL-1475). Cells were maintained at subconfluent densities in their respective culture media.
(§2) Cytotoxicity assays were performed as described above in Example 4, using Resazurin fluorescence as an indicator of cell viability.

[2] = test system: CCD-27sk Fibroblast (normal human fibroblast); test: Tumor Panel Screen, Resazurin cytotoxicity assay; format: cell-based
Excerpt: as §1, §2

[3] = test system: HT-29 Colon (human colon tumor); test: Tumor Panel Screen, Resazurin cytotoxicity assay; format: cell-based
Excerpt: as §1, §2

[4] = test system: MDA-MB-231 Breast (human breast tumor); test: Tumor Panel Screen, Resazurin cytotoxicity assay; format: cell-based
Excerpt: as §1, §2

[5] = test system: NCI-H292 Lung (human non-small cell lung tumor); test: Tumor Panel Screen, Resazurin cytotoxicity assay; format: cell-based
Excerpt: as §1, §2

[6] = test system: OVCAR-3 Ovary (human ovarian tumor); test: Tumor Panel Screen, Resazurin cytotoxicity assay; format: cell-based
Excerpt: as §1, §2

[7] = test system: PC-3 Prostate (human prostate tumor); test: Tumor Panel Screen, Resazurin cytotoxicity assay; format: cell-based
Excerpt: as §1, §2

[8] = test system: MES-SA (Taxol Sensitive) human uterine sarcoma tumor cell line; test: Drug resistant cell line pair, cytotoxicity; format: cell-based
Excerpt: (§3) MES-SA (Taxol Sensitive) and MES-SA DX (Taxol Resistant). This cell line expresses elevated mdr-1 mRNA and P-glycoprotein (an extrusion pump mechanism). Pretreatment with cyclosporin-A (CsA) blocks P-glycoprotein and reinstates activity in the resistant cell line for those compounds for which the resistance is due to elevated P-glycoprotein.

[9] = test system: MES-SA DX (Taxol Resistant) human uterine sarcoma tumor cell line; test: Drug resistant cell line pair, cytotoxicity; format: cell-based; details: MES-SA DX Resistant
Excerpt: as §3

[10] = test system: HL-60 (Mitoxantrone-Sensitive) human acute promyelocytic leukemia cell line; test: Drug resistant cell line pair, cytotoxicity; format: cell-based; details: HL-60 Sensitive
Excerpt: 2) Human Acute Promyelocytic Leukemia Cell Line Pair: HL-60 (Mitoxantrone-Sensitive) and HL-60/MX-2 (Mitoxantrone-Resistant)
This cell line is considered to have atypical drug resistance properties with altered topoisomerase II catalytic activity without overexpression of P-glycoprotein.

[11] = test system: HL-60/MX-2 (Mitoxantrone-Resistant) human acute promyelocytic leukemia cell line; test: Drug resistant cell line pair, cytotoxicity; format: cell-based; details: HL-60 Resistant
Excerpt: HL-60 (Mitoxantrone-Sensitive) and HL-60/MX-2 (Mitoxantrone-Resistant) This cell line is considered to have atypical drug resistance properties with altered topoisomerase II catalytic activity without overexpression of P-glycoprotein.

[12] = test system: tubulin in Human umbilical vein endothelial cells (HuVEC); test: Action on microtubule function, staining for α-tubulin; format: cell-based; details: 2 μM, thirty minutes exposure
[13] = test system: Caspase-3 in Jurkat cells; test: Activation of the caspase cascade; format: cell-based
Excerpt: Several enzymes in the caspase cascade are activated during apoptosis, including Caspase-3, -8 and-9. The activity of Caspase-3 was monitored in Jurkat cells following treatment with t-butyl-phenylahistin.

HuVEC monolayer = HuVEC monolayer permeability to FITC-Dextran; format: cell-based, human
Excerpt: This vascular collapse is preceded by a rapid induction of vascular cell permeability initially to electrolytes and soon after to large molecules. The enhanced permeability of HuVEC cells to a fluorescent-labeled dextran is used as a proxy assay for vascular collapse.

HT-29 human colon tumor = test: HT-29 Human Colon Tumor Xenograft Model; format: in vivo, nude mice
Description: Animals used were (exceptions are indicated for individual studies): female nude mice (nu/nu) between 5 and 6 weeks of age (˜20 g, Harlan); group size was 9-10 mice per group unless otherwise indicated. The selected novel compound was administered as monotherapy via the intraperitoneal (i.p.) route at the doses indicated for the individual study; for the combination studies the selected reference chemotherapy agents were injected 15-30 min prior to the compound. Vehicles used in these studies were: 12.5% DMSO, 5% Cremaphor and 82.5% peanut oil for the selected novel compounds; (1:3) Polysorbate 80:13% ethanol for taxotere; […] Saline dilutions are used to achieve the injection concentrations used for the reference compounds. Animals were implanted subcutaneously (s.c.) by trocar with fragments of HT-29 tumors harvested from s.c. growing tumors in nude mice hosts. […] CPT-11 was administered intraperitoneally on days 1, 8 and 15 (qw×3).

[14] = test system: DU-145 human prostate tumor; test: DU-145 Human Prostate Tumor Xenograft Model; format: in vivo, nude mice; details: alone and in combination with taxotere
Description: Male mice were implanted s.c. by trocar with fragments of DU-145 tumors harvested from s.c. growing tumors in nude male mice hosts. When the tumors reached ˜5 mm×5 mm ( at about 13-17 days) the animals were matched into treatment and control groups. The remainder of the study proceeded as for the HT-29 model, using taxotere as the standard chemotherapy agent.
In this model unless otherwise noted for the individual study, test compound was administered via the intraperitoneal route on Days 1, 3, 5, 8 and 11 (q3d×5); taxotere was administered intravenously on Days 1, 3 and 5 (q2d×3).
The study involved an assessment of t-butyl-phenyalhistin alone and in combination with taxotere.

MCF-7 human breast tumor = test: MCF-7 Human Breast Tumor Xenograft Model; format: in vivo, nude mice; details: in combination with taxotere; compound Days 1, 2, 3, 4, and 7
Description: Female nude mice (˜20 g) were implanted s.c. with 21-day release estrogen (0.25 mg) pellets 24 hours prior to the s.c. implantation with MCF-7 tumor fragments (harvested from s.c. tumors in nude mice hosts). The study then proceeded as described for the HT-29 model, using taxotere as the standard chemotherapy agent.
In this model unless otherwise noted for the individual study, the novel compound was injected via the intraperitoneal route daily on Days 1-5, inclusive (qd×5); taxotere was administered intravenously on Days 1, 3 and 5 (qod×3).
This study considered the effects of t-butyl-phenylahistin in the MCF-7 human breast tumor xenograft model. The doses of the compound were administered on Days 1, 2, 3, 4, and 7; Taxotere was administered on Days 1, 3 and 7.

T. rubrum isolate #1 = test: Antifungal susceptibility testing, broth dilution (NCCLS M38-A); format: cell-based, Trichophyton rubrum; details: dermatophytes
Description: Antifungal susceptibility testing was accomplished according to the methods outlined in the National Committee for Clinical Laboratory Standards, M38-A “Reference Method for Broth Dilution Antifungal Susceptibility Testing of Conidium-Forming Filamentous Fungi; Approved Standard.” This includes testing in RPMI-1640 with glutamine and without bicarbonate, an inoculum size of 0.4-5×10^4, and incubation at 30 or 35° C. for 48 hours. […] Drug concentrations were 0.03-16 μg/ml for the investigational compounds, 0.015-8 μg/ml for itraconazole and griseofulvin.
The minimum lethal concentration (MLC) was determined by plating […] from the MIC concentration and each concentration above the MIC. […] When a MIC was obtained, a minimum fungicidal concentration (MFC) was determined to assess the fungistatic/fungicidal nature of the compound. […] The compound is scored as fungistatic if the cells are able to resume growth and fungicidal if no regrowth is possible because the compound had killed the organisms.

CC(C)(C)c1[nH]cnc1/C=C1\NC(=O)[C@H](Cc2ccccc2)NC1=O [t-butyl-phenylahistin]
% Cytotoxicity, Mean [1]: 74%
IC50 [1]: 736 nM
% Cytotoxicity, Mean [2]: 45%
IC50 [2]: > 20 µM
% Cytotoxicity, Mean [3]: 88%
IC50 [3]: 420 nM
% Cytotoxicity, Mean [4]: 65.5%
IC50 [4]: 387 nM
% Cytotoxicity, Mean [5]: 65%
IC50 [5]: 384 nM
% Cytotoxicity, Mean [6]: 37%
IC50 [6]: > 20 µM
% Cytotoxicity, Mean [7]: 59.5%
IC50 [7]: 174 nM
IC50 ([8]; CsA Pretreat): 162 nM
IC50 ([8]; No CsA): 144 nM and 122 nM
IC50 ([9]; CsA Pretreat): 622 nM
IC50 ([9]; No CsA): 825 nM and 694 nM
IC50 [10]: 255 nM
IC50 [11]: 175 nM
microtubule depolymerization [12]: induced microtubule depolymerization
caspase-3 activation [13]: activated in a dose-dependent manner
time to induction of HuVEC monolayer permeability (HuVEC monolayer): ≤ 1 h
HuVEC monolayer permeability (HuVEC monolayer; FITC-Dextran): induced significant HuVEC monolayer permeability
Comments (HT-29 human colon tumor; combination with CPT-11): Synergy
NPI-Compound Result TGI % (HT-29 human colon tumor; monotherapy 30 mg/kg ip q3dx5, study 2139): No Effect
Exceed NCI Criterion (TGI 58%) (HT-29 human colon tumor; study 2139): Combination
Combination Results TGI % (HT-29 human colon tumor; t-butyl-phenylahistin 30 mg/kg ip q3dx5 + CPT-11 100 ip qwx3, p < 0.05 vs Control and vs CPT-11 Alone): 77.7%
tumor growth inhibition indices (excised tumor weights) [14]: marked inhibition of tumor growth
effect on estimated tumor growth (MCF-7 human breast tumor): significant potentiation of taxotere
potency compared to griseofulvin (T. rubrum isolate #1): at least was equivalent in potency
IC50 (Jurkat cells): 165 nM
